Key:
Type in all cases: in vivo
[1] = tested on: Echinochloa oryzacola Vasing.; assay: Test Example 2: herbicidal activity, application during weed generation in submerged conditions (symbol A); details: Table 23; application herbicide amount 320 g/ha; grade 0-5 by criteria of Test Example 1
Summary of the method: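 Scoring of herbicidal effect took place 3 weeks after treatment, using the criteria of the earlier test. Treatment was water-surface application of diluted emulsifiable compound at a set dose. Plants were at one- to two-leaf stage in submerged alluvial soil (4 cm depth), greenhouse 25-30° C.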

Digitaria ciliaris [2] = assay: Test Example 5: herbicidal effect by foliage application, plastic box (symbol F); details: 320 g/ha, 3 weeks after application
Summary of the method: (§1)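 Greenhouse foliar test: seedlings at 14 days, grown 25° C. to 30° C. in sterilized diluvial soil; compound applied as an aqueous dilution of an emulsion; response read 3 weeks after spraying.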

beet [3] = assay: Test Example 4: effect on crop by soil treatment (symbol f); details: application herbicide amount 320 g/ha
Summary of the method: (§2)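 Crop seed is sown in spots together with several weed species in a box of sterilized diluvial soil. It is covered by about 1.5 cm of soil and kept in a greenhouse held between 25° C. and 30° C.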

Digitaria ciliaris [4] = assay: Test Example 4: herbicidal effect by soil treatment (symbol F); details: application herbicide amount 320 g/ha
Summary of the method: (§3)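 Seeds were sown in sterilized diluvial soil, covered with about 1.5 cm of soil, and the soil surface was sprayed with a water-diluted emulsion of the compound at a predetermined rate. Plants grew in a greenhouse at 25° C. to 30° C.; effects were scored visually 3 weeks after application.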

Galium spurium = assay: Test Example 5: herbicidal effect by foliage application, plastic box (symbol Q); details: 320 g/ha, 3 weeks after application
Summary of the method: as §1

Alopecurus myosuroides = assay: Test Example 5: herbicidal effect by foliage application, plastic box (symbol J); details: 320 g/ha, 3 weeks after application
Summary of the method: as §1

Lolium multiflorum Lam. = assay: Test Example 4: herbicidal effect by soil treatment (symbol K); details: application herbicide amount 320 g/ha
Summary of the method: as §3

beet [5] = assay: Test Example 5: effect on crop by foliage application, plastic box (symbol f); details: 320 g/ha, 3 weeks after application
Summary of the method: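 Greenhouse test at 25° C. to 30° C. Seeds of crops and weeds were spot-sown in boxes of sterilized diluvial soil under roughly 1.5 cm soil cover, then grown for foliage treatment.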

Cyperus difformis = assay: Test Example 3: herbicidal effect by foliage application, Wagner pot (symbol E); details: application herbicide amount 320 g/ha
Summary of the method: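 Foliar spray of a water-diluted emulsion at a predetermined herbicide amount, applied to 14-day-old plants. Seedlings were raised in flooded alluvial soil (0.1–0.5 cm water) at 25–30 °C in a greenhouse. Injury was rated after 3 weeks against fixed criteria.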

Setaria viridis = assay: Test Example 5: herbicidal effect by foliage application, plastic box (symbol G); details: 320 g/ha, 3 weeks after application
Summary of the method: as §1

Apera spica-venti = assay: Test Example 5: herbicidal effect by foliage application, plastic box (symbol L); details: 320 g/ha, 3 weeks after application
Summary of the method: as §1

corn = assay: Test Example 4: effect on crop by soil treatment (symbol c); details: application herbicide amount 320 g/ha
Summary of the method: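 Soil-treatment setup: crop and weed seeds were spot-sown into sterilized diluvial soil, then buried beneath approximately 1.5 cm of it, and the boxes were housed in a 25–30° C. greenhouse.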

[6] = tested on: Echinochloa crus-galli var. crus-galli; assay: Test Example 4: herbicidal effect by soil treatment (symbol H); details: application herbicide amount 320 g/ha
Summary of the method: as §3

[7] = tested on: directly sowed rice plant; assay: Test Example 3: effect on crop by foliage application, Wagner pot (symbol b); details: application herbicide amount 320 g/ha
Summary of the method: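 Alluvial soil in a 1/10000-are Wagner pot was flooded to a water depth of 0.1–0.5 cm. Echinochloa crus-galli var. crus-galli, Leptochloa chinensis, Cyperus difformis and rice were sown into it and grown in a greenhouse at 25–30 °C.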

wheat = assay: Test Example 4: effect on crop by soil treatment (symbol e); details: application herbicide amount 320 g/ha
Summary of the method: as §2

Abutilon theophrasti = assay: Test Example 4: herbicidal effect by soil treatment (symbol M); details: application herbicide amount 320 g/ha
Summary of the method: as §3

rice = assay: Test Example 4: effect on crop by soil treatment (symbol b); details: application herbicide amount 320 g/ha
Summary of the method: as §2

Veronica persica = assay: Test Example 5: herbicidal effect by foliage application, plastic box (symbol R); details: 320 g/ha, 3 weeks after application
Summary of the method: as §1

SMILES	Herbicidal effect grade, A: Echinochloa oryzacola Vasing. [1]	F: Digitaria ciliaris, herbicidal effect grade (Digitaria ciliaris [2])	f (beet) effect on crop grade (beet [3])	F (Digitaria ciliaris) herbicidal effect grade (Digitaria ciliaris [4])	Q: Galium spurium, herbicidal effect grade (Galium spurium)	J: Alopecurus myosuroides, herbicidal effect grade (Alopecurus myosuroides)	K (Lolium multiflorum Lam.) herbicidal effect grade (Lolium multiflorum Lam.)	f: beet, effect on crop grade (beet [5])	herbicidal effect on E, grade 0-5 (Cyperus difformis)	G: Setaria viridis, herbicidal effect grade (Setaria viridis)	L: Apera spica-venti, herbicidal effect grade (Apera spica-venti)	c (corn) effect on crop grade (corn)	H (Echinochloa crus-galli var. crus-galli) herbicidal effect grade [6]	effect on crop b (directly sowed rice plant), grade 0-5 [7]	e (wheat) effect on crop grade (wheat)	M (Abutilon theophrasti) herbicidal effect grade (Abutilon theophrasti)	b (directly sowed rice plant) effect on crop grade (rice)	also measured
CON=C(C)CC1CC(OC(=O)C2(C)CC2(Cl)Cl)=C(c2c(C)cc(C)cc2C)C1=O (centres unmarked) [1-036]	5 (Herbicidal ratio of 90% or more (almost completely withered))	5 (Herbicidal ratio of 90% or more (almost completely withered))	3 (Herbicidal ratio of 40% or higher and lower than 70%)	5 (Herbicidal ratio of 90% or more (almost completely withered))	0 (Herbicidal ratio of 5% or lower (almost no effect))	5 (Herbicidal ratio of 90% or more (almost completely withered))	5 (Herbicidal ratio of 90% or more (almost completely withered))	3 (Herbicidal ratio of 40% or higher and lower than 70%)	5 (Herbicidal ratio of 90% or more (almost completely withered))	5 (Herbicidal ratio of 90% or more (almost completely withered))	5 (Herbicidal ratio of 90% or more (almost completely withered))	3 (Herbicidal ratio of 40% or higher and lower than 70%)	5 (Herbicidal ratio of 90% or more (almost completely withered))	5 (Herbicidal ratio of 90% or more (almost completely withered))	3 (Herbicidal ratio of 40% or higher and lower than 70%)	5 (Herbicidal ratio of 90% or more (almost completely withered))	5 (Herbicidal ratio of 90% or more (almost completely withered))	–
CC(CC1CC(O)=C(c2c(C)cc(Br)cc2C)C1=O)=NOCC(=O)N(C)C (mixture of isomers) [9-029]	0 (Herbicidal ratio of 5% or lower (almost no effect))	3 (Herbicidal ratio of 40% or higher and lower than 70%)	–	–	0 (Herbicidal ratio of 5% or lower (almost no effect))	1 (Herbicidal ratio of 5% or higher and lower than 20%)	–	0 (Herbicidal ratio of 5% or lower (almost no effect))	–	3 (Herbicidal ratio of 40% or higher and lower than 70%)	4 (Herbicidal ratio of 70% or higher and lower than 90%)	–	–	–	–	–	–	Effect on crop grade, f: beet (beet [3]): 0 (Herbicidal ratio of 5% or lower (almost no effect)); Herbicidal effect grade, F: Digitaria ciliaris (Digitaria ciliaris [4]): 3 (Herbicidal ratio of 40% or higher and lower than 70%); R: Veronica persica, herbicidal effect grade (Veronica persica): 0 (Herbicidal ratio of 5% or lower (almost no effect)); Herbicidal effect grade, K: Lolium multiflorum Lam. (Lolium multiflorum Lam.): 4 (Herbicidal ratio of 70% or higher and lower than 90%); Effect on crop grade, c: corn (corn): 0 (Herbicidal ratio of 5% or lower (almost no effect)); Herbicidal effect grade, H: Echinochloa crus-galli var. crus-galli [6]: 3 (Herbicidal ratio of 40% or higher and lower than 70%); b (directly sowed rice plant) effect on crop grade ([7]; Table 24): 3 (Herbicidal ratio of 40% or higher and lower than 70%); Effect on crop grade, e: wheat (wheat): 0 (Herbicidal ratio of 5% or lower (almost no effect)); Herbicidal effect grade, M: Abutilon theophrasti (Abutilon theophrasti): 0 (Herbicidal ratio of 5% or lower (almost no effect)); Effect on crop grade, b: directly sowed rice plant (rice): 1 (Herbicidal ratio of 5% or higher and lower than 20%)
CON=C(C)C(C)C1CC(O)=C(c2c(C)cc(C)cc2C)C1=O (centres unmarked) [1-032]	5 (Herbicidal ratio of 90% or more (almost completely withered))	5 (Herbicidal ratio of 90% or more (almost completely withered))	4 (Herbicidal ratio of 70% or higher and lower than 90%)	5 (Herbicidal ratio of 90% or more (almost completely withered))	4 (Herbicidal ratio of 70% or higher and lower than 90%)	5 (Herbicidal ratio of 90% or more (almost completely withered))	5 (Herbicidal ratio of 90% or more (almost completely withered))	3 (Herbicidal ratio of 40% or higher and lower than 70%)	5 (Herbicidal ratio of 90% or more (almost completely withered))	5 (Herbicidal ratio of 90% or more (almost completely withered))	5 (Herbicidal ratio of 90% or more (almost completely withered))	4 (Herbicidal ratio of 70% or higher and lower than 90%)	5 (Herbicidal ratio of 90% or more (almost completely withered))	5 (Herbicidal ratio of 90% or more (almost completely withered))	5 (Herbicidal ratio of 90% or more (almost completely withered))	4 (Herbicidal ratio of 70% or higher and lower than 90%)	5 (Herbicidal ratio of 90% or more (almost completely withered))	–
CC(CC1CC(O)=C(c2c(C)cc(C)cc2C)C1=O)=NOCC1CC1 (centres unmarked) [1-024]	5 (Herbicidal ratio of 90% or more (almost completely withered))	5 (Herbicidal ratio of 90% or more (almost completely withered))	0 (Herbicidal ratio of 5% or lower (almost no effect))	5 (Herbicidal ratio of 90% or more (almost completely withered))	3 (Herbicidal ratio of 40% or higher and lower than 70%)	5 (Herbicidal ratio of 90% or more (almost completely withered))	5 (Herbicidal ratio of 90% or more (almost completely withered))	0 (Herbicidal ratio of 5% or lower (almost no effect))	5 (Herbicidal ratio of 90% or more (almost completely withered))	5 (Herbicidal ratio of 90% or more (almost completely withered))	5 (Herbicidal ratio of 90% or more (almost completely withered))	1 (Herbicidal ratio of 5% or higher and lower than 20%)	5 (Herbicidal ratio of 90% or more (almost completely withered))	5 (Herbicidal ratio of 90% or more (almost completely withered))	4 (Herbicidal ratio of 70% or higher and lower than 90%)	3 (Herbicidal ratio of 40% or higher and lower than 70%)	5 (Herbicidal ratio of 90% or more (almost completely withered))	–
